# Measured values reported in paper PMC7083565, “In vitro metabolism, reaction phenotyping, enzyme kinetics, CYP inhibition and induction potential of ataluren” (Pharmacology Research & Perspectives, 2020).
# Assays:
# [1] = Plasma protein binding (ultrafiltration), human; type: in vitro ADME
# Protocol: [^14C]‐Ataluren, at 50, 500, 5000, and 50 000 ng/mL or 0.175, 1.75, 17.5, and 175 µM, in male mouse, rat, dog, monkey, and human plasma, was incubated (n = 3) at 37°C for approximately 15 minutes, transferred into Centrifree® Micropartition Units (30 000 Da molecular weight cutoff, 1 mL capacity; Amicon Inc), and centrifuged at 37°C and 2000 g for approximately 10 minutes so that the amount of the sample filtered was approximately ≤ 20% of the total volume. After centrifugation, the entire ultrafiltrate was weighed and analyzed for radioactivity using liquid scintillation counting. The percent bound = (1‐Cu/Cm)×100, where Cu is the concentration of radioactivity in the ultrafiltrate and Cm is the concentration of radioactivity in the plasma before centrifugation.
# CYP1A2 = test: CYP induction in primary human hepatocytes: CYP1A2; conditions: Phenacetin O-deethylase, 48 hours, n=3
# CYP3A4/5 = test: CYP inhibition in pooled human liver microsomes: CYP3A4/5; type: in vitro ADME
# Protocol: The final concentration of each probe substrate was near the experimentally determined Km value for the indicated enzyme. Ataluren or prototypical CYP inhibitors (positive controls) was incubated (n = 3) with probe substrates and HLM in 100 mmol/L phosphate buffer (pH 7.4) in a total volume of approximately 0.25 mL, and the reactions were initiated by the addition of 1 mmol/L NADPH at 37°C. The reactions were carried out using previously established conditions to ensure linearity with respect to protein concentration and incubation time (Table S1). Incubations were stopped with the addition of ice‐cold acetonitrile. Metabolite formation in incubations with test compound and control inhibitors was assessed with LC‐MS/MS methods for each of the reaction products as described in Table S2. […] After 7 minutes incubation at 37°C, the reaction was stopped by the addition of ice‐cold acetonitrile, followed by membrane plate filtration. The filtrates were used for LC‐MS/MS analysis. Enzyme activity remaining at each nonzero ataluren concentration after incubation was normalized against control sample (zero ataluren concentration, enzyme activity = 100%), and the % remaining enzyme activity values were used for IC50 calculation. IC50 values were determined by nonlinear regression with GraphPad Prism 5 using the following four‐parameter sigmoidal‐logistic IC50 equation: Fit=background+range-background/[1+I/IC50^slope]
# Where, I is the inhibitor concentration, and background was set to 0 and range to 100, as percent of control values are utilized. K i was determined by nonlinear regression with GraphPad Prism 5 using best fit model.
smiles,measurement,setting,value
"O=C(O)c1cccc(-c2noc(-c3ccccc3F)n2)c1 [ataluren, Ataluren]",free fraction in human plasma,[1]; as measured,0.4%
same,fraction unbound at 15 min,"[1]; male, 50 to 50 000 ng/mL, mean ± SD, n = 3, read-out: percentage protein binding (converted)",0.004
same,"Positive control %, Mean",CYP1A2; ataluren 4 µM,1.32%
same,"Positive control %, Mean",CYP1A2; ataluren 40 µM,1.24%
same,"Vehicle control %, Mean",CYP1A2; ataluren 40 µM,116%
same,"Positive control %, Mean",CYP1A2; ataluren 400 µM,0.087%
same,"Vehicle control %, Mean",CYP1A2; ataluren 400 µM,100%
same,IC50,"CYP3A4/5; pH 7.4, CYP3A4/5, HLM, estimated, concentrations up to 400 μmol/L, substrate not stated",> 400 µM
same,IC50,"CYP3A4/5; pH 7.4, probe midazolam (1′-hydroxylation), Midazolam 1′-hydroxylase, pooled HLM, n=3",> 400 µM
same,IC50,"CYP3A4/5; pH 7.4, probe testosterone (6β-hydroxylation), Testosterone 6β-hydroxylase, pooled HLM, n=3",> 400 µM
